Assay results published in article PMC10817943 (Nature Communications, 2024).
Where two headings read alike, the source gives them in different places.

Legend:
[1] = test system: M. smegmatis mc^2155 reporter strain harboring PrecA-LUX; settings: RecA reporter, ciprofloxacin 0.06 µg/mL, MPA 0.125 µg/mL
[2] = test system: M. smegmatis mc^2155 reporter strain harboring PradA-LUX; settings: RadA reporter, ciprofloxacin 0.06 µg/mL, MPA 0.125 µg/mL

O=C(O)c1cn(C2CC2)c2cc(N3CCNCC3)c(F)cc2c1=O [ciprofloxacin, Ciprofloxacin, reference compound] showed a luminescence induction ([1]; elapsed time 0:00:00) of 1225 RLU, a luminescence induction ([1]; elapsed time 3:00:00) of 9623 RLU and a luminescence induction ([1]; elapsed time 6:00:00) of 25614 RLU. It also gave a luminescence induction ([1]; elapsed time 9:00:00) of 37445 RLU, a luminescence induction ([1]; elapsed time 12:00:00) of 44651 RLU and a luminescence induction ([1]; elapsed time 15:00:00) of 48781 RLU. For the same compound, the luminescence induction ([1]; elapsed time 18:00:00) was 52120 RLU, the luminescence induction ([1]; elapsed time 21:00:00) was 57807 RLU and the luminescence induction ([1]; elapsed time 24:00:00) was 68911 RLU. For the same compound, the luminescence induction ([1]; elapsed time 27:00:00) was 89348 RLU, the luminescence induction ([1]; elapsed time 30:00:00) was 122834 RLU and the luminescence induction ([1]; elapsed time 33:00:00) was 178492 RLU. For the same compound, the luminescence induction ([1]; elapsed time 36:00:00) was 273065 RLU, the luminescence induction ([1]; elapsed time 39:00:00) was 424870 RLU and the luminescence induction ([1]; elapsed time 42:00:00) was 486228 RLU. The luminescence induction ([1]; elapsed time 45:00:00) was 462582 RLU, the luminescence induction ([1]; elapsed time 48:00:00) was 485841 RLU and the luminescence induction ([1]; elapsed time 51:00:00) was 408474 RLU. The luminescence induction ([1]; elapsed time 54:00:00) was 246511 RLU, the luminescence induction ([1]; elapsed time 57:00:00) was 125742 RLU and the luminescence induction ([1]; elapsed time 60:00:00) was 64490 RLU. The luminescence induction ([1]; elapsed time 63:00:00) was 37695 RLU, the luminescence induction ([1]; elapsed time 66:00:00) was 23762 RLU and the luminescence induction ([1]; elapsed time 69:00:00) was 17429 RLU. It also gave a luminescence induction ([1]; elapsed time 72:00:00) of 13645 RLU, a luminescence induction ([1]; elapsed time 75:00:00) of 10589 RLU and a luminescence induction ([1]; elapsed time 78:00:00) of 8697 RLU. It also gave a luminescence induction ([1]; elapsed time 81:00:00) of 7129 RLU, a luminescence induction ([1]; elapsed time 84:00:00) of 6189 RLU and a luminescence induction ([1]; elapsed time 87:00:00) of 5163 RLU. The luminescence induction ([2]; elapsed time 0:00:00) was 123 RLU, the luminescence induction ([2]; elapsed time 3:00:00) was 1612 RLU and the luminescence induction ([2]; elapsed time 6:00:00) was 2073 RLU. For the same compound, the luminescence induction ([2]; elapsed time 9:00:00) was 2126 RLU, the luminescence induction ([2]; elapsed time 12:00:00) was 1993 RLU and the luminescence induction ([2]; elapsed time 15:00:00) was 2134 RLU. For the same compound, the luminescence induction ([2]; elapsed time 18:00:00) was 2689 RLU, the luminescence induction ([2]; elapsed time 21:00:00) was 4077 RLU and the luminescence induction ([2]; elapsed time 24:00:00) was 6491 RLU. For the same compound, the luminescence induction ([2]; elapsed time 27:00:00) was 10903 RLU, the luminescence induction ([2]; elapsed time 30:00:00) was 19150 RLU and the luminescence induction ([2]; elapsed time 33:00:00) was 33571 RLU. For the same compound, the luminescence induction ([2]; elapsed time 36:00:00) was 56395 RLU, the luminescence induction ([2]; elapsed time 39:00:00) was 67383 RLU and the luminescence induction ([2]; elapsed time 42:00:00) was 103238 RLU. It also gave a luminescence induction ([2]; elapsed time 45:00:00) of 85422 RLU, a luminescence induction ([2]; elapsed time 48:00:00) of 47660 RLU and a luminescence induction ([2]; elapsed time 51:00:00) of 21645 RLU. It also gave a luminescence induction ([2]; elapsed time 54:00:00) of 9619 RLU, a luminescence induction ([2]; elapsed time 57:00:00) of 4843 RLU and a luminescence induction ([2]; elapsed time 60:00:00) of 2928 RLU. For the same compound, the luminescence induction ([2]; elapsed time 63:00:00) was 1993 RLU, the luminescence induction ([2]; elapsed time 66:00:00) was 1543 RLU and the luminescence induction ([2]; elapsed time 69:00:00) was 1199 RLU. The luminescence induction ([2]; elapsed time 72:00:00) was 998 RLU, the luminescence induction ([2]; elapsed time 75:00:00) was 761 RLU and the luminescence induction ([2]; elapsed time 78:00:00) was 636 RLU. For the same compound, the luminescence induction ([2]; elapsed time 81:00:00) was 547 RLU, the luminescence induction ([2]; elapsed time 84:00:00) was 460 RLU and the luminescence induction ([2]; elapsed time 87:00:00) was 387 RLU.
